Data set [1] in a line: Triglyceride and ALT levels during efficacy study in anemic rhesus monkeys. Particulars: all three groups, prior to or during the two phases.
The next data set has as its system γ globin chain. Kind of data set: % γ globin chain levels by HPLC, efficacy study in anemic rhesus monkeys. It is filed as in vivo.
Data set [2] concerns Fetal hemoglobin cells (F cells). In words: Fetal hemoglobin cells (% F cells), efficacy study in anemic rhesus monkeys. It is filed as in vivo.
The subject of the next data set is Hemoglobin F. In words: Hemoglobin F level in total hemoglobin (% Hb F) by HPLC, efficacy study in anemic rhesus monkeys. It is filed as in vivo.
For data set [3] the following is noted: cited from earlier work.
The conditions of data set [4]: rhesus monkey, in vivo.
For data set [5], the system named is sickle cell anemia patients. Particulars: cited from earlier work.
Where [6] appears, read: Groups II and III (compound IIIc).
Setting [7] is: Group I (hydroxyurea in Phase I, hydroxyurea + compound IIIc in Phase II).

Like-named read-outs stand apart in the source and are kept apart here.

Protocol for Hemoglobin F: (§1) The efficacy of compound IIIc administered in conjunction with hydroxyurea was tested on six anemic rhesus monkeys divided into three groups of two each. Each group was studied in two phases, as shown below. Fetal hemoglobin cells (F cells), Hemoglobin F level in total Hemoglobin (% Hb F) and % γ globin chain levels were monitored before and after each of the two phases. % F cells were measured according to the protocol described in Betke et al, Blut., 4, pp. 241-9 (1958). % Hb F and % γ globin chain synthesis were measured using High Performance Liquid Chromatography (HPLC) according to the protocol described in Huisman, J. Chromagtogr., 418, pp. 277 (1987).
Protocol for γ globin chain: as §1

Consider `CCCC(=O)O[C@@H](C)C(=O)OCC` [Compound IIIc], for which, in data set [1], the “levels of ALT” value is reported as “no detectable difference” and the “levels of the triglycerides” value was “no detectable difference”. In addition, the γ-globin chain levels result with γ globin chain (setting [6]) is recorded as “no measurable change”. In data set [2] (Animal 2, group II, compound IIIc 1 g/kg/TID, 5 weeks, 8-10% before Phase I), the “% F cell count at the end of Phase II” value is 22%. Besides, in data set [2] (Animal 2, group II, compound IIIc 1 g/kg/day, 5 weeks, 8-10% before Phase I), the “% F cell count at the end of Phase I” value was found to be 15%. For the same molecule, the “increase in % F cells” value in data set [2] (setting [6]) is listed as “small but significant increase”. In the data set on Hemoglobin F (setting [6]), the HbF entry is on record as “no measurable change”.

Take `CCCC(=O)OCOC(=O)C(C)(C)C` [AN-9]: the “formaldehyde-producing metabolites in vivo” value in data set [3] was “elicit metabolites that may produce formaldehyde in vivo”.

In the case of `NC(=O)NO` [Hydroxyurea, hydroxyurea], in data set [4], the “levels of ALT” value is listed as “no detectable difference” and the “levels of the triglycerides” value is given as “no detectable difference”. In addition, the “% γ-globin chain levels” value in the data set with γ globin chain (setting [7]) is “measurable increase”. The “fetal hemoglobin production and sickling crisis” value in data set [5] is “stimulates fetal hemoglobin production and reduces sickling crisis”. The “% F cell count at the end of Phase I” value in data set [2] (Animal 1, group I, hydroxyurea 50 mg/kg/day, 5 weeks, 8-10% before Phase I) stood at 25%. In addition, the “% Hb F level” value in the data set with Hemoglobin F (setting [7]) is listed as “measurable increase”.

These data come from patent US5912269A, “Butyrate prodrugs derived from lactic acid” (Vertex Pharmaceuticals, Inc., priority 1996, dated 1999).
